Assay results published in patent US20180147183A1, “USE OF R-OXIRACETAM IN PHARMACEUTICAL FIELD” (Chongqing Runze Pharmaceutical Co., Ltd., priority 2015, published 2018).
Several values for one entry are separate records, joined by “and”; a condition that tells them apart may be missing. Equal values may be shown once.

Test: Pharmacokinetics and bioavailability in dogs, plasma determined by LC-MS
Assay type: in vivo, dog
Procedure: A. The Pharmacokinetics of R-Oxiracetam In Vivo and Studies of Bioavailability
4 Determination Methods of Oxiracetam and R-Oxiracetam in Plasma by LC-MS
4.1 Chromatographic Conditions
Mobile phase: methanol: water (5:95)
Column: ZORBAX SB-Aq (2.1×100 mm 3.5μ)
Column temperature: 30° C.;
Injection volume: […] 4.2 Mass Spectrometry Detection Parameters
Mass spectrometry ionization method: electrospray ionization (ESI); ion polarity Positive; scanning mode for multiple reactions monitoring (MRM); scanning time of 100 ms. The ionic reactions used for quantitative analysis were m/z (oxiracetam) m/z 159.0→m/z 113.9 and m/z 143.1→m/z 126.0 (piracetam), respectively.
20 μL of the drug-containing the plasma sample is taken in a 1.5 mL Eppendorf tube. 20 μL of piracetam (20 μg/mL) of the internal standard solution is added, and mixed by the vortex mixer for 30s. Then, 500 μL of acetonitrile is added thereto, vortex shaken for 5 min and centrifugated at 16000 rpm for 10 min. The supernatant from the centrifugation was passed through 1 ml of SPE C 18E column and the filtrate was collected, put into 38° C. constant temperature water bath and dried by nitrogen gas. 300 μL of mobile phase was dissolved and the injection volume was 10 μL.
20 μL of blank dog plasma was added into the working solution prepared from the oxiracetam standard. The concentrations of oxiracetam in the plasma were 0.167, 0.33, 0.37, 1.33, 2.67, 4.0, 6.67, 13.33 and 26.67 μg/mL, respectively. A sample was made for each concentration respectively according to the procedures“4.4 Extraction of plasma samples”. The ratio of the peak area (As) of oxiracetam to the peak area (Ai) of the internal standard piracetam (f=As/Ai) were calculated, and perform linear regression using the concentration (C) to the ratio (f). The weight parameter 1/x, and the oxiracetam regression equation: y=5.2117X−0.76985 (r=0.9970, weight 1/x).
20 μL of blank dog plasma was added into the working solution prepared from the R-oxiracetam standard. The concentrations of R-oxiracetam in the plasma were 0.167, 0.33, 0.37, 1.33, 2.67, 4.0, 6.67, 13.33 and 26.67 μg/mL, respectively. A sample was made for each concentration respectively according to the procedures “4.4 Extraction of plasma samples”. The ratio of the peak area (As) of R-oxiracetam to the peak area (Ai) of the internal standard piracetam (f=As/Ai) were calculated, and perform linear regression using the concentration (C) to the ratio (f). The weight parameter 1/x, and the oxiracetam regression equation: y=1.6811X−0.031244(r=0.9949, weight 1/x).

## NC(=O)CN1C[C@H](O)CC1=O [R-oxiracetam, (R)-4-hydroxy-2-oxo-1-pyrrolidineacetamide]
Time 0 h, individual dogs, one table per dog
  Concentration in dog blood C: 0 µg/mL
Time 0.5 h, individual dogs, one table per dog
  Concentration in dog blood C: 30.41 µg/mL and 9.013 µg/mL and 51.07 µg/mL and 7.637 µg/mL and 33 µg/mL and 74.67 µg/mL
Time 1 h, individual dogs, one table per dog
  Concentration in dog blood C: 50.8706 µg/mL and 35.55 µg/mL and 70.64 µg/mL and 48.19 µg/mL and 54.75 µg/mL and 112.1642 µg/mL
Time 1.5 h, individual dogs, one table per dog
  Concentration in dog blood C: 110.2229 µg/mL and 37.88 µg/mL and 76.28 µg/mL and 74.56 µg/mL and 61.91 µg/mL and 58.53 µg/mL
Time 6 h, individual dogs, one table per dog
  Concentration in dog blood C: 7.637 µg/mL and 14.07 µg/mL and 12.21 µg/mL and 4.648 µg/mL and 10.14 µg/mL and 4.409 µg/mL
Time 8 h, individual dogs, one table per dog
  Concentration in dog blood C: 3.684 µg/mL and 4.731 µg/mL and 9.036 µg/mL and 2.318 µg/mL and 4.967 µg/mL and 2.215 µg/mL
Time 12 h, individual dogs, one table per dog
  Concentration in dog blood C: 1.61 µg/mL and 1.913 µg/mL and 2.205 µg/mL and 1.4615 µg/mL and 3.568 µg/mL and 1.333 µg/mL
Time 24 h, individual dogs, one table per dog
  Concentration in dog blood C: 0 µg/mL
dog, plasma, Time 0 h, individual dogs, one table per dog, read-out: Concentration in dog blood C
  concentration at 0 h: 0 µg/mL
dog, plasma, Time 4 h, individual dogs, one table per dog, read-out: Concentration in dog blood C
  concentration at 4 h: 18.4 µg/mL
dog, plasma, Time 24 h, individual dogs, one table per dog, read-out: Concentration in dog blood C
  concentration at 24 h: 0 µg/mL
dog, plasma, dogs, mean ± SD
  Cmax: 85.8 ± 20 µg/mL
  Tmax: 2.04 ± 0.401 h
dog, plasma, dogs, with oxiracetam as a reference, read-out: relative bioavailability
  bioavailability: 112 ± 11.6%
